Measured values: ChEMBL document CHEMBL3507680, “University of Dundee, Gates Library screen for HepG2 cell viability”

Assay: Human HepG2 cell viability assay in 384 well format
Type: toxicity, cell-based
Parameters: dose 125 nL, time 70.5 hour; cytotoxicity at 70.5 h: concentration not given beside the values
Details: HepG2 cells, read-out: Inhibition

Row | SMILES | cytotoxicity at 70.5 h
1 | CCC(CC)C(=O)N1CCN(C)c2ncccc2C1 | -2.64%
2 | CO[C@H]1CN(Cc2ccccc2F)[C@@H]2CCCO[C@H]12 | -1.13%
3 | O=C(c1ccco1)N1CCCC2(CCN(CCN3CCCC3)C2=O)C1 (centres undefined) | -3.97%
4 | O=C(Cc1cccnc1)N1CCC2(CCN(C3CCOC3)CC2)C1 (centres undefined) | 20.9%
5 | O=C(c1ccccn1)N1CCc2ncnc(N3CCOCC3)c2CC1 | -5.19%
6 | CC(C)CNC(=O)N1C[C@H]2CC[C@@]3(N=C(c4ccccc4)NC3=O)[C@H]2C1 | -0.00686%
7 | COCCn1cnc(-c2nc(C(=O)N3CCOCC3)c3ccccn23)c1 | 5.18%
8 | CC(=O)N1CCCC2(CN(Cc3ccccc3C(F)(F)F)CCO2)C1 (centres undefined) | -2.98%
9 | CC(=O)N1CCCC2(CN(Cc3ccncc3)CCO2)C1 (centres undefined) | -1.7%
10 | CC(C)n1cnc(-c2nc(C(=O)N3CCN(C)CC3)c3ccccn23)c1 | -2.41%
11 | CC(C)n1cnc(-c2nc(C(=O)N3CCCC3)c3ccccn23)c1 | -2.79%
12 | c1ccc(O[C@@H]2CC[C@H]3[C@H]2OCCN3Cc2ccsc2)nc1 | 8.42%
13 | O=C(C1CCOCC1)N1CCc2ncnc(-c3ccccc3)c2CC1 | 1.86%
14 | CCOc1ncnc2c1CCN(C(=O)c1cnccn1)CC2 | 1.88%
15 | Cc1cnc(N2CC[C@@H]3CN(CCC(C)C)S(=O)(=O)[C@@H]3CC2)nc1 | -1.61%
16 | O=C(c1ccnnc1)N1C[C@H]2CCC[C@@H](OCc3cccnc3)[C@@H]2C1 | -3.26%
17 | c1ccc(OCC2CC3(CCN(Cc4ccncc4)CC3)CO2)nc1 (centres undefined) | -18.6%
18 | O=S(=O)(C1CC1)N1CCC2(COCc3cnc(N4CCOCC4)nc32)C1 (centres undefined) | 4.94%
19 | O=C(c1ccco1)N1CCC2(CCOC2)C1 (centres undefined) | -13.3%
20 | Cc1nc(CN2CCCn3c(nc(Cn4ccnc4)cc3=O)C2)cs1 | -21.2%
21 | CC(=O)N1CC[C@H]2OCC[C@@H](C(=O)N3CCCCO3)[C@@H]2C1 | -20.9%
22 | O=C([C@@H]1CCO[C@@H]2CCN(Cc3cccnc3)C[C@H]21)N1CCCCO1 | -13.8%
23 | O=C1CC[C@H]2[C@H](CCN2C(=O)C2CCCO2)N1CCN1CCCC1 (some centres undefined) | -21.6%
24 | O=C1CC[C@H]2[C@H](CCN2C(=O)C2CCCO2)N1Cc1ccncc1 (some centres undefined) | 7.56%
25 | c1cncc(OCc2noc3c2CN(Cc2ccoc2)CC3)c1 | -15.9%

Row | SMILES | cytotoxicity at 70.5 h
26 | CN(C)S(=O)(=O)N1CC[C@@H]2CN(Cc3cnn(C)c3)C[C@@H]2C1 | 32.1%
27 | Cn1cc(CN2CCc3c(CNC(=O)C4CC4)cncc3C2)cn1 | -1.11%
28 | O=C1[C@H]2CN(Cc3ccccc3)C[C@H]2CN1c1cncnc1 | -2.62%
29 | Cc1occc1C(=O)N1CCC2(CCN(Cc3cccs3)C2)CC1 | -1.13%
30 | Cc1ccc(CN2Cc3nnn(C)c3C(COCC3CC3)C2)o1 (centres undefined) | -5.52%
31 | O=C1[C@H]2CN(Cc3ccco3)C[C@H]2CN1c1cncnc1 | -5.56%
32 | Cc1occc1C(=O)N1CCC2(CC1)CN(Cc1nccs1)CCO2 | 7.01%
33 | Fc1cccc(-c2nnn3c2COC(CNCc2cccs2)C3)c1 (centres undefined) | 1.1%
34 | CNC(=O)[C@H]1C[C@@H]2CN(S(=O)(=O)c3ccc(OC)cc3)C[C@@H]2N1C | -1.32%
35 | CNC(=O)[C@H]1C[C@@H]2CN(S(=O)(=O)c3ccc(C)c(F)c3)C[C@@H]2N1C | -3.95%
36 | O=C(Cc1ccccn1)N1CCc2ncnc(N3CCCC3)c2CC1 | -0.341%
37 | COCc1nnc2n1CCN(Cc1ccoc1)C2 | -3.74%
38 | Cc1ccsc1C(=O)N1CCCn2c(nc(CN(C)C)cc2=O)C1 | 8.58%
39 | O=C(c1ccsc1)N1C[C@H]2CN(Cc3cccnc3)C(=O)[C@H]2C1 | 4.1%
40 | Cc1ccc(C(=O)N2CC3(CCCCC3)c3cc(C(=O)O)ccc32)cn1 | 0.0823%
41 | O=C(C1CCC1)N1CCC2(CCN(Cc3cccc(F)c3)CC2)CC1 | 18.6%
42 | O=C(NC1CCCC1)[C@H]1CC[C@@H]2[C@@H](CCN2c2ncc(F)cn2)O1 | 13.4%
43 | CC(=O)N1CCCC2(CN(Cc3ccc(C)s3)CCO2)C1 (centres undefined) | 0.871%
44 | O=C(NC1CC1)N1CC[C@H](OCC2CC2)[C@@H]1Cc1cccnc1 | 1.68%
45 | O=C1CC2(CCCCN2C(=O)Cc2ccccc2)CN1c1cccnc1 (centres undefined) | -1.11%
46 | O=C(N1CCOCC1)N1CCc2ncnc(Oc3cccnc3)c2CC1 | -2.03%
47 | O=C(c1ccco1)N1CCc2ncnc(Oc3cccnc3)c2CC1 | -0.464%
48 | CCc1cnc(N2CC[C@@H]3CN(CCC(C)C)S(=O)(=O)[C@@H]3CC2)nc1 | -4.3%
49 | CN(C)C(=O)CN1C[C@H]2CCN(c3ncccn3)CC[C@H]2S1(=O)=O | -0.338%
50 | O=C(NCc1cccs1)C1CNCC12CCOCC2 (centres undefined) | 0.759%

Row | SMILES | cytotoxicity at 70.5 h
51 | CN1CCC2(CCN(Cc3nccs3)CC2)C1=O | -1.5%
52 | COCCNC(=O)[C@@H]1CC[C@@H]2[C@@H](CCN2c2ncc(F)cn2)O1 | -3.55%
53 | COc1ccccc1CN1CC[C@]2(C[C@H](OC)CO2)C1 | -12.6%
54 | CN1CCC2(COCc3cnc(N4CCOCC4)nc32)C1 (centres undefined) | -16.8%
55 | O=C(NC[C@]12COC[C@H]1CN(Cc1nccs1)C2)c1ccccc1 | -15%
56 | Cc1cccc(CN2CCC3(CCCN(C(=O)NC4CC4)C3)C2=O)n1 (centres undefined) | 25.5%
57 | Cc1ccoc1C(=O)N1C[C@@H]2[C@@H](C1)OCC(=O)N2Cc1cccnc1 | 29.7%
58 | c1ccc(N2CCOC3(CCCN(c4nncs4)C3)C2)nc1 (centres undefined) | -2.74%
59 | COCC1CN(Cc2ccc(C)o2)Cc2cnn(CC3CCOCC3)c21 (centres undefined) | 6.49%
60 | c1cncc(COCc2nnc3n2CCN(Cc2ccco2)C3)c1 | 1.97%
61 | c1ccc(O[C@@H]2CC[C@H]3[C@H]2OCCN3CC2CCOCC2)nc1 | 1.68%
62 | c1ccc(CO[C@H]2CC[C@H]3[C@H]2OCCN3Cc2nccs2)nc1 | 1.15%
63 | Cc1cccc(CN2CCC3(CCN(c4cccnc4)C3=O)C2)n1 (centres undefined) | 2.95%
64 | Cc1noc(C)c1CN1CCO[C@H]2[C@H](Oc3ccccn3)CC[C@@H]21 | -0.309%
65 | c1ccc(O[C@@H]2CN(Cc3nccs3)[C@@H]3CCCO[C@@H]32)nc1 | 1.57%
66 | O=C1N(c2cccnc2)CCC12CCCN(Cc1ccco1)C2 (centres undefined) | -3.89%
67 | COc1ccc(CN2CCO[C@H]3[C@H](Oc4ccccn4)CC[C@@H]32)cc1 | -2.38%
68 | CC(=O)N1[C@H](Cn2cncn2)C[C@@H]2CN(Cc3ccncc3)CC[C@@H]21 | -3.75%
69 | CN1CCN(Cc2cn3c(n2)CN(C(=O)c2cccn2C)CC3)CC1 | -4.16%
70 | Cn1cnc2c(N3CCCC3)nc(C3CCN(CC4CC4)CC3)cc21 | -0.352%
71 | O=C(N1CCOCC1)[C@@]12CCO[C@@H]1CCN(CCN1CCCCC1)C2 | -20.4%
72 | O=C1N(c2cccnc2)CCC12CCCN(Cc1cccnc1)C2 (centres undefined) | -4.25%
73 | CO[C@H]1CCN(Cc2ccccn2)[C@@H]2CN(Cc3ccco3)C[C@H]12 | -20.1%
74 | CN1CC(=O)N(c2cccc(F)c2)CC12CCN(Cc1cccnc1)C2 (centres undefined) | 3.06%
